According to PubChem BioAssay (NCI):
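Cultured in 96-well plates, cells were exposed to test compound for 48 hours across five concentrations. GI50 = concentration required for 50% inhibition of growth. TGI is the concentration that stops growth completely.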

Legend:
Assay in all cases: DTP human tumour cell line panel, 48 h; in the data active = GI50 below about 0.43 µM; inactive = the rest
M14 melanoma = system: M14 melanoma
A498 renal = system: A498 renal
SK-MEL-5 melanoma = system: SK-MEL-5 melanoma
MDA-MB-468 breast = system: MDA-MB-468 breast
T-47D breast = system: T-47D breast
SF-539 CNS = system: SF-539 CNS
HT29 colon = system: HT29 colon
LOX IMVI melanoma = system: LOX IMVI melanoma
SNB-75 CNS = system: SNB-75 CNS
SF-268 CNS = system: SF-268 CNS
TK-10 renal = system: TK-10 renal
ACHN renal = system: ACHN renal
UACC-62 melanoma = system: UACC-62 melanoma
RPMI-8226 leukemia = system: RPMI-8226 leukemia
OVCAR-5 ovarian = system: OVCAR-5 ovarian
DU-145 prostate = system: DU-145 prostate
CCRF-CEM leukemia = system: CCRF-CEM leukemia
UO-31 renal = system: UO-31 renal
IGROV1 ovarian = system: IGROV1 ovarian
786-0 renal = system: 786-0 renal
HCT-15 colon = system: HCT-15 colon
NCI-H460 lung = system: NCI-H460 lung
EKVX NSCLC = system: EKVX NSCLC
MALME-3M melanoma = system: MALME-3M melanoma
HOP-62 NSCLC = system: HOP-62 NSCLC
HCC-2998 colon = system: HCC-2998 colon
SR leukemia = system: SR leukemia
PC-3 prostate = system: PC-3 prostate
K-562 leukemia = system: K-562 leukemia
SW-620 colon = system: SW-620 colon
SF-295 CNS = system: SF-295 CNS
MOLT-4 leukemia = system: MOLT-4 leukemia
MDA-MB-231 breast = system: MDA-MB-231 breast
OVCAR-3 ovarian = system: OVCAR-3 ovarian
COLO 205 colon = system: COLO 205 colon
OVCAR-4 ovarian = system: OVCAR-4 ovarian
MDA-MB-435 = system: MDA-MB-435
SK-OV-3 ovarian = system: SK-OV-3 ovarian
SK-MEL-28 melanoma = system: SK-MEL-28 melanoma
SK-MEL-2 melanoma = system: SK-MEL-2 melanoma
OVCAR-8 ovarian = system: OVCAR-8 ovarian
A549 NSCLC = system: A549 NSCLC
HCT-116 colon = system: HCT-116 colon
HS 578T breast = system: HS 578T breast
KM12 colon = system: KM12 colon
SNB-19 CNS = system: SNB-19 CNS
NCI-H226 lung = system: NCI-H226 lung
MCF7 breast = system: MCF7 breast
SN12C renal = system: SN12C renal
RXF 393 renal = system: RXF 393 renal
HL-60(TB) leukemia = system: HL-60(TB) leukemia
CAKI-1 renal = system: CAKI-1 renal
NCI-H23 lung = system: NCI-H23 lung
BT-549 breast = system: BT-549 breast
U251 CNS = system: U251 CNS

CC1=C(C(=O)OCc2ccccc2)C(c2cccc3ccccc23)n2c(nc3ccccc32)N1 (stereo not given)
4.91 µM: TGI (SNB-75 CNS)
7.26 µM: TGI (MDA-MB-468 breast)
7.58 µM: TGI (OVCAR-3 ovarian)
6.9 µM: TGI (RXF 393 renal)
inactive: GI50 (M14 melanoma) 3.78 µM | GI50 (A498 renal) > 100 µM | GI50 (SK-MEL-5 melanoma) 3.37 µM | GI50 (MDA-MB-468 breast) 1.93 µM | GI50 (T-47D breast) 4.22 µM | GI50 (SF-539 CNS) 3.22 µM | GI50 (HT29 colon) 2.53 µM | GI50 (LOX IMVI melanoma) 5.7 µM | GI50 (SNB-75 CNS) 1.39 µM | GI50 (SF-268 CNS) 5.44 µM | GI50 (TK-10 renal) > 100 µM | GI50 (ACHN renal) 4.66 µM | GI50 (UACC-62 melanoma) 3.99 µM | GI50 (RPMI-8226 leukemia) 3.46 µM | GI50 (OVCAR-5 ovarian) > 100 µM | GI50 (DU-145 prostate) 4.21 µM | GI50 (CCRF-CEM leukemia) 2.69 µM | GI50 (UO-31 renal) 4.64 µM | GI50 (IGROV1 ovarian) 5.49 µM | GI50 (786-0 renal) 4.68 µM | GI50 (HCT-15 colon) 3.61 µM | GI50 (NCI-H460 lung) 3.61 µM | GI50 (EKVX NSCLC) 4.8 µM | GI50 (MALME-3M melanoma) 3.84 µM | GI50 (HOP-62 NSCLC) 4.15 µM | GI50 (HCC-2998 colon) 7.58 µM | GI50 (SR leukemia) 2.4 µM | GI50 (PC-3 prostate) 3.33 µM | GI50 (K-562 leukemia) 1.66 µM | GI50 (SW-620 colon) 3.62 µM | GI50 (SF-295 CNS) 3.04 µM | GI50 (MOLT-4 leukemia) 2.71 µM | GI50 (MDA-MB-231 breast) > 100 µM | GI50 (OVCAR-3 ovarian) 2.65 µM | GI50 (COLO 205 colon) 3.22 µM | GI50 (OVCAR-4 ovarian) 6.36 µM | GI50 (MDA-MB-435) 1.86 µM | GI50 (SK-OV-3 ovarian) 3.97 µM | GI50 (SK-MEL-28 melanoma) > 100 µM | GI50 (SK-MEL-2 melanoma) 2.5 µM | GI50 (OVCAR-8 ovarian) 4.94 µM | GI50 (A549 NSCLC) 5.21 µM | GI50 (HCT-116 colon) 3.19 µM | GI50 (HS 578T breast) 2.69 µM | GI50 (KM12 colon) 3.21 µM | GI50 (SNB-19 CNS) 5.8 µM | GI50 (NCI-H226 lung) 3.26 µM | GI50 (MCF7 breast) 2.71 µM | GI50 (SN12C renal) 5.08 µM | GI50 (RXF 393 renal) 1.51 µM | GI50 (HL-60(TB) leukemia) 2.14 µM | GI50 (CAKI-1 renal) 2.4 µM | GI50 (NCI-H23 lung) 32.6 µM | GI50 (BT-549 breast) 4.67 µM | GI50 (U251 CNS) 3.49 µM
8.82 µM: TGI (HS 578T breast)
> 100 µM: TGI (M14 melanoma) | TGI (A498 renal) | TGI (T-47D breast) | TGI (SF-539 CNS) | TGI (LOX IMVI melanoma) | TGI (SF-268 CNS) | TGI (TK-10 renal) | TGI (ACHN renal) | TGI (UACC-62 melanoma) | TGI (RPMI-8226 leukemia) | TGI (OVCAR-5 ovarian) | TGI (DU-145 prostate) | TGI (CCRF-CEM leukemia) | TGI (UO-31 renal) | TGI (IGROV1 ovarian) | TGI (786-0 renal) | TGI (HCT-15 colon) | TGI (NCI-H460 lung) | TGI (EKVX NSCLC) | TGI (MALME-3M melanoma) | TGI (HOP-62 NSCLC) | TGI (HCC-2998 colon) | TGI (SR leukemia) | TGI (PC-3 prostate) | TGI (K-562 leukemia) | TGI (SW-620 colon) | TGI (SF-295 CNS) | TGI (MOLT-4 leukemia) | TGI (MDA-MB-231 breast) | TGI (COLO 205 colon) | TGI (OVCAR-4 ovarian) | TGI (SK-OV-3 ovarian) | TGI (SK-MEL-28 melanoma) | TGI (OVCAR-8 ovarian) | TGI (A549 NSCLC) | TGI (HCT-116 colon) | TGI (KM12 colon) | TGI (SNB-19 CNS) | TGI (NCI-H226 lung) | TGI (MCF7 breast) | TGI (SN12C renal) | TGI (HL-60(TB) leukemia) | TGI (CAKI-1 renal) | TGI (NCI-H23 lung) | TGI (BT-549 breast) | TGI (U251 CNS)
21.7 µM: TGI (SK-MEL-5 melanoma)
4.68 µM: TGI (MDA-MB-435)
7.66 µM: TGI (SK-MEL-2 melanoma)
8.29 µM: TGI (HT29 colon)
